{"source": "paper PMC9027532", "about": "“Preclinical Pharmacokinetic Studies of a Novel Diuretic Inhibiting Urea Transporters” (Molecules, 2022)", "key": {"[1]": {"assay": "Blood plasma ratio, rat blood", "assay_type": "in vitro ADME, SD rats", "details": "for Blood Plasma Ratio: rat", "procedure": "The BPR of 25a in rats and humans was assessed. […] In addition, a significant species difference between rats and humans was observed (p < 0.05, Student’s t-test, n = 3).\nThe blood plasma ratio of 25a was investigated as previously reported. Briefly, fresh whole blood was collected into collection tubes containing K2–EDTA as an anticoagulant from SD rats and healthy volunteers. Blood spiked with 50, 500, and 2500 ng/mL 25a was incubated in the incubator with 5% CO2 at 37 ± 1 °C for 1 h. Some of the incubated samples were processed as blood samples; the remaining incubated samples were centrifuged to generate plasma samples. The concentration of 25a in samples was determined using the validated LC–MS/MS method."}, "[2]": {"assay": "Pharmacokinetic study in rats (plasma, LC-MS/MS, NCA)", "details": "male, Sprague-Dawley, rat, plasma; for MRT / CL/F / Cmax / bioavailability / concentration at 0.083 h / concentration at 0.167 h / concentration at 0.25 h / concentration at 0.5 h / concentration at 1 h / concentration at 2 h / concentration at 4 h / concentration at 6 h / concentration at 8 h / concentration at 12 h / concentration at 24 h / Tmax: rats; for half-life: t1/2, rats; for bioavailability: F (oral bioavailability); for concentration at 0.083 h / concentration at 0.167 h / concentration at 0.25 h / concentration at 0.5 h / concentration at 1 h / concentration at 2 h / concentration at 4 h / concentration at 6 h / concentration at 8 h / concentration at 12 h / concentration at 24 h: Mean plasma concentration"}, "[3]": {"details": "iv, 1 mg/kg, single i.v. 1 mg/kg"}, "[4]": {"details": "po, 25 mg/kg, single p.o. 25 mg/kg"}, "[5]": {"details": "po, 50 mg/kg, single p.o. 50 mg/kg"}, "[6]": {"details": "po, 100 mg/kg, multiple p.o. 100 mg/kg, twice per day for 7 days"}, "[7]": {"details": "po, 100 mg/kg, single p.o. 100 mg/kg"}, "[8]": {"details": "po, 100 mg/kg, multiple p.o. 100 mg/kg"}}}
{"molecule": "CC(=O)Nc1ccc(NC(=O)c2ccc(C(C)=O)o2)cc1", "note": "[Compound 25a, N-(4-acetamidophenyl)-5-acetylfuran-2-carboxamide]", "values": [{"measurement": "Blood Plasma Ratio", "setting": "[1]; 50 ng/mL", "value": "0.84 ± 0.26"}, {"measurement": "Blood Plasma Ratio", "setting": "[1]; 500 ng/mL", "value": "0.74 ± 0.06"}, {"measurement": "Blood Plasma Ratio", "setting": "[1]; 2500 ng/mL", "value": "0.79 ± 0.15"}, {"measurement": "mean blood plasma ratio (BPR)", "setting": "[1]; rats, 50, 500, 2500 ng/mL", "value": "0.74–0.84"}, {"measurement": "AUC(0-inf)", "setting": "[2]; iv, 1 mg/kg", "value": "503 ± 124", "unit": "ng·h/mL"}, {"measurement": "AUC(0-t)", "setting": "[2]; iv, 1 mg/kg", "value": "501 ± 124", "unit": "ng·h/mL"}, {"measurement": "C0", "setting": "[2]; iv, 1 mg/kg", "value": "1710 ± 398", "unit": "ng/mL"}, {"measurement": "MRT", "setting": "[2]; [3]", "value": "0.6 ± 0.1", "unit": "h"}, {"measurement": "half-life", "setting": "[2]; [3]", "value": "0.89 ± 0.52", "unit": "h"}, {"measurement": "AUC(0-inf)", "setting": "[2]; po, 25 mg/kg", "value": "2530 ± 362", "unit": "ng·h/mL"}, {"measurement": "AUC(0-t)", "setting": "[2]; po, 25 mg/kg", "value": "2520 ± 395", "unit": "ng·h/mL"}, {"measurement": "CL/F", "setting": "[2]; [4]", "value": 165, "unit": "mL/min/kg"}, {"measurement": "Cmax", "setting": "[2]; [4]", "value": "515 ± 107", "unit": "ng/mL"}, {"measurement": "bioavailability", "setting": "[2]; [4]", "value": "20.1 ± 0.8", "unit": "%"}, {"measurement": "MRT", "setting": "[2]; [4]", "value": "5.2 ± 0.4", "unit": "h"}, {"measurement": "concentration at 0.083 h", "setting": "[2]; [4]", "value": "282 ± 62.3", "unit": "ng/mL"}, {"measurement": "concentration at 0.167 h", "setting": "[2]; [4]", "value": "431 ± 116", "unit": "ng/mL"}, {"measurement": "concentration at 0.25 h", "setting": "[2]; [4]", "value": "515 ± 122", "unit": "ng/mL"}, {"measurement": "concentration at 0.5 h", "setting": "[2]; [4]", "value": "167 ± 33.5", "unit": "ng/mL"}, {"measurement": "concentration at 1 h", "setting": "[2]; [4]", "value": "245 ± 92.5", "unit": "ng/mL"}, {"measurement": "concentration at 2 h", "setting": "[2]; [4]", "value": "206 ± 83.7", "unit": "ng/mL"}, {"measurement": "concentration at 4 h", "setting": "[2]; [4]", "value": "372 ± 74.3", "unit": "ng/mL"}, {"measurement": "concentration at 6 h", "setting": "[2]; [4]", "value": "230 ± 49.7", "unit": "ng/mL"}, {"measurement": "concentration at 8 h", "setting": "[2]; [4]", "value": "102 ± 7.7", "unit": "ng/mL"}, {"measurement": "concentration at 12 h", "setting": "[2]; [4]", "value": "36.8 ± 2.7", "unit": "ng/mL"}, {"measurement": "concentration at 24 h", "setting": "[2]; [4]", "value": "2.1 ± 1.3", "unit": "ng/mL"}, {"measurement": "half-life", "setting": "[2]; [4]", "value": "2.86 ± 0.29", "unit": "h"}, {"measurement": "Tmax", "setting": "[2]; [4]", "value": 0.25, "unit": "h"}, {"measurement": "AUC(0-inf)", "setting": "[2]; po, 50 mg/kg", "value": "4740 ± 854", "unit": "ng·h/mL"}, {"measurement": "AUC(0-t)", "setting": "[2]; po, 50 mg/kg", "value": "4730 ± 854", "unit": "ng·h/mL"}, {"measurement": "CL/F", "setting": "[2]; [5]", "value": 175, "unit": "mL/min/kg"}, {"measurement": "Cmax", "setting": "[2]; [5]", "value": "693 ± 260", "unit": "ng/mL"}, {"measurement": "bioavailability", "setting": "[2]; [5]", "value": "18.9 ± 1.7", "unit": "%"}, {"measurement": "concentration at 0.083 h", "setting": "[2]; [5]", "value": "236 ± 93.5", "unit": "ng/mL"}, {"measurement": "concentration at 0.167 h", "setting": "[2]; [5]", "value": "380 ± 173", "unit": "ng/mL"}, {"measurement": "concentration at 0.25 h", "setting": "[2]; [5]", "value": "496 ± 211", "unit": "ng/mL"}, {"measurement": "concentration at 0.5 h", "setting": "[2]; [5]", "value": "693 ± 272", "unit": "ng/mL"}, {"measurement": "concentration at 1 h", "setting": "[2]; [5]", "value": "429 ± 149", "unit": "ng/mL"}, {"measurement": "concentration at 2 h", "setting": "[2]; [5]", "value": "454 ± 97.6", "unit": "ng/mL"}, {"measurement": "concentration at 4 h", "setting": "[2]; [5]", "value": "553 ± 97.8", "unit": "ng/mL"}, {"measurement": "concentration at 6 h", "setting": "[2]; [5]", "value": "383 ± 166", "unit": "ng/mL"}, {"measurement": "concentration at 8 h", "setting": "[2]; [5]", "value": "271 ± 75.1", "unit": "ng/mL"}, {"measurement": "concentration at 12 h", "setting": "[2]; [5]", "value": "78.3 ± 36.1", "unit": "ng/mL"}, {"measurement": "concentration at 24 h", "setting": "[2]; [5]", "value": "3.6 ± 1.1", "unit": "ng/mL"}, {"measurement": "half-life", "setting": "[2]; [5]", "value": "2.63 ± 0.2", "unit": "h"}, {"measurement": "Tmax", "setting": "[2]; [5]", "value": 0.5, "unit": "h"}, {"measurement": "AUC(0-inf)", "setting": "[2]; po, 100 mg/kg", "value": 12100, "unit": "ng·h/mL"}, {"measurement": "AUC(0-t)", "setting": "[2]; po, 100 mg/kg", "value": 11800, "unit": "ng·h/mL"}, {"measurement": "CL/F", "setting": "[2]; [6]", "value": 137, "unit": "mL/min/kg"}, {"measurement": "CL/F", "setting": "[2]; [7]", "value": 240, "unit": "mL/min/kg"}, {"measurement": "Cmax", "setting": "[2]; [6]", "value": "1710 ± 185", "unit": "ng/mL"}, {"measurement": "Cmax", "setting": "[2]; [7]", "value": "1320 ± 228", "unit": "ng/mL"}, {"measurement": "bioavailability", "setting": "[2]; [6]", "value": "23.5 ± 2.3", "unit": "%"}, {"measurement": "bioavailability", "setting": "[2]; [7]", "value": "13.8 ± 0.8", "unit": "%"}, {"measurement": "MRT", "setting": "[2]; [6]", "value": "6.5 ± 0.6", "unit": "h"}, {"measurement": "MRT", "setting": "[2]; [7]", "value": "5.3 ± 0.3", "unit": "h"}, {"measurement": "concentration at 0.083 h", "setting": "[2]; [8]", "value": "681 ± 97", "unit": "ng/mL"}, {"measurement": "concentration at 0.083 h", "setting": "[2]; [7]", "value": "1080 ± 287", "unit": "ng/mL"}, {"measurement": "concentration at 0.167 h", "setting": "[2]; [8]", "value": "936 ± 102", "unit": "ng/mL"}, {"measurement": "concentration at 0.167 h", "setting": "[2]; [7]", "value": "1320 ± 235", "unit": "ng/mL"}, {"measurement": "concentration at 0.25 h", "setting": "[2]; [8]", "value": "1090 ± 192", "unit": "ng/mL"}, {"measurement": "concentration at 0.25 h", "setting": "[2]; [7]", "value": "1210 ± 196", "unit": "ng/mL"}, {"measurement": "concentration at 0.5 h", "setting": "[2]; [8]", "value": "1260 ± 168", "unit": "ng/mL"}]}
